# pEC50: −log10 of the molar value.
# Assays:
# TMD8 = assay: CellTiter-Glo cell viability assay; type: cell-based; conditions: Homo sapiens, 72 hours
# Protocol: (§1) CellTiter-Glo® Luminescent cell viability assay (Promega) was used to assess cell survival following treatment with the compounds described. Cells were seeded into 384 well plates with the EL406 Combination Washer Dispenser (BioTek Instruments, Inc.) and the compounds were injected into the cells culture media with the JANUS Automated Workstation (PerkinElmer Inc.). Cells were treated with a series diluted inhibitors (20˜0.04 μM) for 72 hours at 37° C. Luminescent measurement is performed using the 2104 Envision® Multilabel Reader (PerkinElmer Inc.).
# Ramos = assay: CellTiter-Glo cell viability assay; type: cell-based; conditions: Homo sapiens
# Protocol: as §1
# OCI-Ly7 = assay: CellTiter-Glo cell viability assay; type: cell-based; conditions: Homo sapiens, 72 hours
# Protocol: as §1
# BCWM.1 = assay: CellTiter-Glo cell viability assay; type: cell-based
# Protocol: as §1
# MWCL-1 = assay: CellTiter-Glo cell viability assay; type: cell-based
# Protocol: as §1
# OCI-Ly19 = assay: CellTiter-Glo cell viability assay; type: cell-based; conditions: Homo sapiens
# Protocol: as §1
# OCI-Ly3 = assay: CellTiter-Glo cell viability assay; type: cell-based
# Protocol: as §1
# HCK = type: biochemical; conditions: read-out: HCK IC50 (nM) Inv
# Excerpt: The in vitro activity of the compounds described herein in inhibiting TAK1, HCK and other kinases were obtained using an Invitrogen Select Screening assay as known in the art. The IC50 values determined from this assay are shown below.
pEC50 (OCI-Ly7),SMILES,pEC50 (TMD8),pEC50 (Ramos; 72 h),"pEC50 (BCWM.1; BCWM1, 72 h)",pEC50 (MWCL-1; 72 h),"pEC50 (OCI-Ly19; OCI-LY19, 72 h)",pEC50 (OCI-Ly3; 72 hours),"pEC50 (OCI-Ly3; Homo sapiens, OCI-Ly3, 72 h)",pEC50 (MWCL-1; 72 hours),pEC50 (BCWM.1; 72 hours),IC50 (HCK) [nM],pEC50 (Ramos; 72 hours),"pEC50 (OCI-Ly19; OCI-LY19, 72 hours)"
–,"CCN1CCN(Cc2ccc(NC(=O)c3ccc(C)c(Oc4cc(NC5COC5)ncn4)c3)cc2C(F)(F)F)CC1 [(A-13), N-(4-((4-ethylpiperazin-1-yl)methyl)-3-(trifluoromethyl)phenyl)-4-methyl-3-((6-(oxetan-3-ylamino)pyrimidin-4-yl)oxy)benzamide]",–,5.49,–,5.75,5.64,5.76,5.92,5.54,–,–,–,–
–,"CCN1CCN(Cc2ccc(NC(=O)c3ccc(C)c(Oc4cc(Nc5ccn(C)n5)ncn4)c3)cc2C(F)(F)F)CC1 [(A-12), N-(4-((4-ethylpiperazin-1-yl)methyl)-3-(trifluoromethyl)phenyl)-4-methyl-3-((6-((1-methyl-1H-pyrazol-3-yl)amino)pyrimidin-4-yl)oxy)benzamide]",–,5.53,7.42,7.12,6.68,–,–,7.15,7.15,–,–,–
–,C=CC(=O)NNc1cc(Oc2cc(C(=O)Nc3ccc(CN4CCN(CC)CC4)c(C(F)(F)F)c3)ccc2C)ncn1 [(A-18)],–,5.14,5.70,5.39,5.56,–,–,5.17,5.43,–,–,–
–,"CCN1CCN(Cc2ccc(NC(=O)c3ccc(C)c(Oc4cc(NC5CNC5)ncn4)c3)cc2C(F)(F)F)CC1 [(A-10), 3-((6-(azetidin-3-ylamino)pyrimidin-4-yl)oxy)-N-(4-((4-ethylpiperazin-1-yl)methyl)-3-(trifluoromethyl)phenyl)-4-methylbenzamide]",–,–,–,4.61,–,–,–,< 4.70,–,> 10000,< 4.70,< 4.70
–,"CCN1CCN(Cc2ccc(NC(=O)c3ccc(C)c(Oc4cc(Nc5cn[nH]c5)ncn4)c3)cc2C(F)(F)F)CC1 [(A-7), 3-((6-((1H-pyrazol-4-yl)amino)pyrimidin-4-yl)oxy)-N-(4-((4-ethylpiperazin-1-yl)methyl)-3-(trifluoromethyl)phenyl)-4-methylbenzamide]",–,5.52,7.32,7.15,6.72,–,5.40,–,–,–,–,–
–,"CCN1CCN(Cc2ccc(NC(=O)c3ccc(C)c(Oc4cc(NC(=O)C5CC5)ncn4)c3)cc2C(F)(F)F)CC1 [(A-3), 3-((6-(cyclopropanecarboxamido)pyrimidin-4-yl)oxy)-N-(4-((4-ethylpiperazin-1-yl)methyl)-3-(trifluoromethyl)phenyl)-4-methylbenzamide]",–,5.57,7.30,6.04,6.22,–,6.32,–,–,–,–,–
–,"CCN1CCN(Cc2ccc(NC(=O)c3ccc(C)c(Oc4cc(NNC(C)=O)ncn4)c3)cc2C(F)(F)F)CC1 [(A-9), 3-((6-(2-acetylhydrazinyl)pyrimidin-4-yl)oxy)-N-(4-((4-ethylpiperazin-1-yl)methyl)-3-(trifluoromethyl)phenyl)-4-methylbenzamide]",–,–,4.97,4.73,–,< 4.70,4.71,< 4.70,5.19,> 10000,< 4.70,< 4.70
–,"CCN1CCN(Cc2ccc(NC(=O)c3ccc(C)c(Oc4cc(NC)ncn4)c3)cc2C(F)(F)F)CC1 [(A-1), N-(4-((4-ethylpiperazin-1-yl)methyl)-3-(trifluoromethyl)phenyl)-4-methyl-3-((6-(methylamino)pyrimidin-4-yl)oxy)benzamide]",–,–,5.76,5.40,–,–,4.94,–,–,275,5.02,5.30
–,"CCN1CCN(Cc2ccc(NC(=O)c3ccc(C)c(Oc4cc(Nc5ccn[nH]5)ncn4)c3)cc2C(F)(F)F)CC1 [(A-6), 3-((6-((1H-pyrazol-5-yl)amino)pyrimidin-4-yl)oxy)-N-(4-((4-ethylpiperazin-1-yl)methyl)-3-(trifluoromethyl)phenyl)-4-methylbenzamide]",–,5.51,7.07,6.93,6.52,–,5.32,–,–,–,–,–
–,"CCN1CCN(Cc2ccc(NC(=O)c3ccc(C)c(Oc4cc(NN(C)C)ncn4)c3)cc2C(F)(F)F)CC1 [(A-11), 3-((6-(2,2-dimethylhydrazinyl)pyrimidin-4-yl)oxy)-N-(4-((4-ethylpiperazin-1-yl)methyl)-3-(trifluoromethyl)phenyl)-4-methylhenzamide]",–,–,4.71,< 4.70,–,–,< 4.70,–,–,> 10000,< 4.70,< 4.70
5.95,"Cc1ccc(C(=O)Nc2cccc(C(C)(C)C#N)c2)cc1Oc1ncnc2[nH]ccc12 [(I-11), 3-((7H-pyrrolo[2,3-d]pyrimidin-4-yl)oxy)-N-(3-(2-cyanopropan-2-yl)phenyl)-4-methylbenzamide]",5.46,–,5.31,5.84,–,–,5.01,–,–,–,5.41,–
5.99,"CCN1CCN(Cc2ccc(NC(=O)c3ccc(C)c(Oc4cc(Nc5cnoc5)ncn4)c3)cc2C(F)(F)F)CC1 [(A-16), N-(4-((4-ethylpiperazin-1-yl)methyl)-3-(trifluoromethyl)phenyl)-3-((6-(isoxazol-4-ylamino)pyrimidin-4-yl)oxy)-4-methylbenzamide]",6.07,–,6.21,5.77,–,–,–,–,–,–,5.88,6.11
–,"CCC(=O)Nc1cc(Oc2cc(C(=O)Nc3ccc(CN4CCN(CC)CC4)c(C(F)(F)F)c3)ccc2C)ncn1 [(A-2), N-(4-((4-ethylpiperazin-1-yl)methyl)-3-(trifluoromethyl)phenyl)-4-methyl-3-((6-propionamidopyrimidin-4-yl)oxy)benzamide]",–,5.27,7.38,5.87,5.76,–,5.53,–,–,–,–,–

SMILES,pEC50 (OCI-Ly7),pEC50 (TMD8),pEC50 (Ramos; 72 h),"pEC50 (BCWM.1; BCWM1, 72 h)",pEC50 (MWCL-1; 72 h),"pEC50 (OCI-Ly19; OCI-LY19, 72 h)",pEC50 (OCI-Ly3; 72 hours),"pEC50 (OCI-Ly3; Homo sapiens, OCI-Ly3, 72 h)",pEC50 (MWCL-1; 72 hours),pEC50 (BCWM.1; 72 hours),IC50 (HCK) [nM],pEC50 (Ramos; 72 hours),"pEC50 (OCI-Ly19; OCI-LY19, 72 hours)"
"CCN1CCN(Cc2ccc(NC(=O)c3ccc(C)c(Oc4ccnc(Nc5cnoc5)n4)c3)cc2C(F)(F)F)CC1 [(A-15), N-(4-((4-ethylpiperazin-1-yl)methyl)-3-(trifluoromethyl)phenyl)-3-((2-(isoxazol-4-ylamino)pyrimidin-4-yl)oxy)-4-methylbenzamide]",6.10,6.41,5.33,6.73,6.14,6.51,–,–,–,–,–,–,–
